Results published in patent US8748113B2, “Methods for detecting and monitoring circulating cancer stem cells” (The Johns Hopkins University, priority 2007, dated 2014).
“Also recorded” adds a separate entry of the source.

Tests used:
Assay type in all cases: cell-based, human
[1] = test system: CD138+ plasma cells from the RPMI 8226 and NCI-H929 MM cell lines; experiment: Clonogenic growth of CD138+ plasma cells isolated from MM cell lines; details: FIGS. 10A and B, P<0.02 compared to the untreated control
clonogenic MM cells = experiment: In vitro clonogenic growth of MM precursors (summary statements); details: summary statement
Text: Many agents are active in multiple myeloma (MM), but the majority of patients relapse. […] We further characterized clonogenic MM cells and stained cell lines using the Hoechst side population and Aldefluor assays. […] Furthermore, both the side population and Aldefluor assays were capable of identifying circulating clonotypic memory B cell populations within the peripheral blood of MM patients.
CD138^− precursors or CD138^+ plasma cells were isolated from the RPMI 8226 or NCI-H929 cell lines and treated with each of the two humanized monoclonal antibodies, rituximab or alemtuzumab, and in combination with human complement that strongly enhances their in vitro activity through complement dependent cytoxicity. Neither complement alone nor the monoclonal antibodies with or without complement affected the clonogenic growth of CD138^+ plasma cells that lack the target antigens (FIG. 8B; P>0.3 for all groups compared to the untreated control).
Although stem cells have been identified in an increasing number of human cancers, the clinical relevance and implications of these findings remain unclear. Standard response criteria used to measure the clinical efficacy of anti-cancer treatments primarily reflect changes in disease bulk and activity against mature tumor cells. Since cancer stem cells are a relatively low frequency population in most tumor types, the true inhibition of these cells is likely to be difficult to assess early following treatment, and a prolongation of disease remission would be required to establish such activity. The initial clinical responses induced by dexamethasone, lenalidomide, bortezomib and cyclophosphamide seen as decreased bone marrow plasmacytosis and monoclonal Ig levels in MM likely reflect the activity of these agents against mature MM plasma cells. […] It is well known that the anti-tumor activity of these agents is mediated in part by modulating the interaction between myeloma plasma cells and bone marrow stromal cells.
Our results complement a recent report describing the relative radioresistance of glioblastoma cancer stem cells compared to the differentiated cells that make up the bulk of the tumor mass. The stark biological differences between cancer stem cells and mature tumor cells is likely to be representative of many other malignancies as the clinical pattern of relapse following effective treatment can be seen in most human cancers. Therefore, therapeutic strategies that target the specific biology of cancer stem cells are likely required to prevent the continued production of mature tumor cells and produce sustained remissions. […] Therefore, optimal clinical strategies may require combining agents active against MM plasma cells to decrease tumor burden and alleviate symptoms with those that target MM cancer stem cells to prevent tumor regrowth and relapse.

[2] = test system: CD138neg MM progenitors derived from primary clinical specimens; experiment: Clonogenic recovery of CD138neg MM progenitors from primary clinical samples; details: 4 MM patients; FIG. 10C; P>0.2 compared to the untreated control

CC(C)C[C@H](NC(=O)[C@H](Cc1ccccc1)NC(=O)c1cnccn1)B(O)O [bortezomib]
clonogenic growth of CD138+ plasma cells [1]: inhibited
effect of anti-myeloma agents on CD138neg precursors / clonogenic MM progenitors (clonogenic MM cells): little effect; also recorded: similarly resistant
effect on clonogenic MM precursors from patients [2]: not significantly affected

Nc1cccc2c1CN(C1CCC(=O)NC1=O)C2=O (stereo not drawn) [lenalidomide]
clonogenic growth of CD138+ plasma cells [1]: inhibited
effect of anti-myeloma agents on CD138neg precursors / clonogenic MM progenitors (clonogenic MM cells): similarly resistant
effect of anti-myeloma agents on CD138neg precursors / clonogenic MM progenitors (clonogenic MM cells; listed as lenadilomide): little effect
effect on clonogenic MM precursors from patients [2]: not significantly affected

Rituximab: humanized monoclonal antibody that targets the B-cell antigen CD20
effect of antibodies on clonogenic MM cells (clonogenic MM cells): inhibit clonogenic MM cells

alemtuzumab: humanized monoclonal antibody that targets the B-cell antigen CD52
effect of antibodies on clonogenic MM cells (clonogenic MM cells): inhibit clonogenic MM cells
